Data on one sequence can be found in patent US10287328B2, “Treatment of diabetes, toll-like receptor 4 modulators and methods for using the same” (KeMyth Biotech Co., Ltd., priority 2016, dated 2019).

One assay relates to HUVEC. The experiment in a line: Low shear stress experiment on HUVEC (morphology, F-actin immunofluorescence). In kind it is cell-based, human. As to conditions: peptide pre-treatment 1 hour (100 mM), shear stress 4 dyn/cm^2 for 6 hours. As for the experimental part:
HUVEC was purchased by ScienCell Research Laboratories (CA, USA). The pellet was resuspended in M199 culture medium supplemented with penicillin/streptomycin and 20% fetal bovine serum (FBS), after which the cells were plated onto cell culture dishes. ECs were grown in Petri dishes for three days and then seeded onto glass slides pre-coated with rat tail type I collagen. Secondary cultures were used for the experiments within two days after reaching confluence (˜1-2×10^5 cells/cm^2).^12
HUVECs was mounted on a slide in a parallel-plate flow chamber, which was connected to a perfusion loop system (15). The system was kept in a constant-temperature, maintained at pH 7.4 by gassing with 5% CO2. The osmolality of the medium was kept in the range 285-295 mOsm/kg during perfusion. The flow channel width (w) was 1 cm and the channel height (h) was 0.025 cm. […]
After exposing to shear stress with or without peptide treatment, HUVECs were washed, fixed with 4% formaldehyde, and permeabilized by 1% Triton X-100 in PBS at 37° C. for 30 min. […] Intracytoplasmic F-actin immunofluorescence was detected by staining with phalloidin-fluorescein isothiocyanate (FITC) (1:1000 eBioscience) for 1 hr at room temperature, and cell nuclear stained with 4′,6-diamidino-2-phenylindole (DAPI) for 10 min at room temperature. Fluorescent cells were photographed by a fluorescence microscope with CCD (OLYMPUS).

The nature of assay [1]: Blood glucose level in C57BL/KsJ-db/db diabetic mice. In kind it is in vivo. As to conditions: 2 mg/kg/3 days i.p. for 30 days, compared with control group, after week 2. The method, then:
Male C57BL/KsJ-db/db mice (diabetic deficiency knockout mice) at 5 weeks of age (23 g) were fed a pelletized commercial chow diet for acclimation from the arrival for 2 weeks. […]. They were given free access to food and distilled water, and the food consumption and body weight gain were measured daily and weekly, respectively. […]; and (2) group 2 served as diabetic mice administered C70PLY4 (2 mg/kg/3 days) in aqueous suspension i.p. for 30 days (C70PLY4). […] The blood was centrifuged at 1000 g for 15 min at 4° C., and plasma and erythrocyte were separated. The livers and adipose tissues were removed, washed, weighted, and frozen at −70° C. until analyzed.
Blood Glucose Test Strips and Blood Glucose Monitoring System were used to determine whole blood glucose levels on a drop of tail blood collected between 10 am and midday. Glucose concentration was determined colorimetrically using a glucose oxidase/peroxidase reagent kit. Samples were incubated with 100 μl of assay reagent at 37° C. for 30 min and measured at 540 nm. Values were expressed in mg/dL.

For assay [2], the system named is PMNs isolated from TLR4(−/−) mice C3H/HeJ. In words: LPS-induced PMN transendothelial migration, PMNs from TLR4(-/-) C3H/HeJ mice. In kind it is cell-based. As to conditions: LPS 1 μg/ml, HUVEC monolayer Transwell. As for the experimental part:
To obtain mice neutrophils from TLR4-deficient [TLR4(−/−)] C3H/HeJ mice and wild type C3H/HeN mice, inflammation was induced by 0.1 ml of uric acid solution into the peritoneal cavity of the mouse. The uric acid solution (noncrystalline form) was prepared by mixing with saline (10% [wt/vol]) and sonicated for 10 min. Immediately before inoculation, the milky white precipitated uric acid solution was shaken vigorously. Peritoneal exudate cells were harvested 4, 18, or 24 h after injection by two lavages of the peritoneal cavity with 5 ml of cold phosphate-buffered saline (PBS; total volume, 10 ml). Uric acid-induced peritoneal cells (UAPMN) were washed by centrifugation at 200×g for 10 min at 4° C. […] The numbers and populations of peritoneal exudate cells were determined by staining the nuclei with Turk reagent and by cytospin centrifugation followed by May-Grünwald-Giemsa staining, respectively. […] Viability of the isolated neutrophils exceeded 95% as determined by trypan blue exclusion. […]
Neutrophils from human were isolated blood that was drawn in a syringe containing preservative-free heparin (20 U/ml final), and mixed with an equal volume of PBS containing 3% dextran and then incubated for 20 min at room temperature. […] The viability of the isolated neutrophils exceeded 95%, as determined by Trypan blue exclusion. […]

On to “QDLTAHFTTSIPLKGNVRNLSVKIRECTGLAWEWWRTVYEKTDLPLVRKRTISIWGTTLYPQVEDKVEND [C70PLY4]”, for which, in the assay on HUVEC, the “low shear stress induced cytoskeleton (F-actin) remodeling” value is listed as “almost block” and the “low shear stress induced morphological change” value is recorded as “almost block”. In addition, the blood glucose level entry in assay [1] is reported as “significantly decreases”. Also, the “PMNs migration, TLR4(−/−) mice model (FIG. 10)” value in assay [2] is recorded as “this phenomenon did not occur”.
